Assay results reported in US9416115B2, “Fused heterocyclic compounds as ion channel modulators” (Gilead Sciences, Inc., priority 2013, dated 2016).
Like-named read-outs stand apart in the source and are kept apart here.

Columns and labels:
[1] = biological target: wild-type human cardiac sodium channel, hNav1.5 (Homo sapiens, UniProt Q14524); assay: Peak INa screening assay (tonic block and use-dependent block); type: cell-based
Method in brief: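 HEK293 cells stably expressing hNav1.5 (no beta subunits), automated whole-cell patch clamp at 23-25° C, 40 mM Na+ bath (choline substitution), pH 7.35. Compound at 1 or 3 μM, added twice then 200 s equilibration; tonic block by steps to −20 mV from −100 mV at 0.1 Hz, use-dependent block at pulse 50 of a 3 Hz train, rundown-corrected versus compound-free.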

[2] = biological target: hNav1.1 (SCN1A) (Homo sapiens, UniProt P35498); assay: Use-dependent inhibition of the CNS Nav1.1 sodium channel; type: cell-based; settings: use-dependent block, 25 Hz, pulse 20, read-out: Nav1.1 UDB 25 Hz 10 uM
Method in brief: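 HEK-293 cells stably expressing WT hNav1.1, automated whole-cell patch clamp at 23-25 °C with CsF-based internal and NaCl external solutions, pH 7.35. Compound applied twice, 200 s equilibration; block measured at pulse 20 of a 25 Hz train (0 mV, 20 ms) from −120 mV, as mean % inhibition versus compound-free.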

[3] = tonic block of Peak INa, 0.1 Hz, holding -100 mV, read-out: Peak TB 3 uM
[4] = use-dependent block of Peak INa, 3 Hz, pulse 50, read-out: Peak UDB 3 Hz 3 uM

Sequence of wild-type human cardiac sodium channel, hNav1.5 (Q14524 whole entry): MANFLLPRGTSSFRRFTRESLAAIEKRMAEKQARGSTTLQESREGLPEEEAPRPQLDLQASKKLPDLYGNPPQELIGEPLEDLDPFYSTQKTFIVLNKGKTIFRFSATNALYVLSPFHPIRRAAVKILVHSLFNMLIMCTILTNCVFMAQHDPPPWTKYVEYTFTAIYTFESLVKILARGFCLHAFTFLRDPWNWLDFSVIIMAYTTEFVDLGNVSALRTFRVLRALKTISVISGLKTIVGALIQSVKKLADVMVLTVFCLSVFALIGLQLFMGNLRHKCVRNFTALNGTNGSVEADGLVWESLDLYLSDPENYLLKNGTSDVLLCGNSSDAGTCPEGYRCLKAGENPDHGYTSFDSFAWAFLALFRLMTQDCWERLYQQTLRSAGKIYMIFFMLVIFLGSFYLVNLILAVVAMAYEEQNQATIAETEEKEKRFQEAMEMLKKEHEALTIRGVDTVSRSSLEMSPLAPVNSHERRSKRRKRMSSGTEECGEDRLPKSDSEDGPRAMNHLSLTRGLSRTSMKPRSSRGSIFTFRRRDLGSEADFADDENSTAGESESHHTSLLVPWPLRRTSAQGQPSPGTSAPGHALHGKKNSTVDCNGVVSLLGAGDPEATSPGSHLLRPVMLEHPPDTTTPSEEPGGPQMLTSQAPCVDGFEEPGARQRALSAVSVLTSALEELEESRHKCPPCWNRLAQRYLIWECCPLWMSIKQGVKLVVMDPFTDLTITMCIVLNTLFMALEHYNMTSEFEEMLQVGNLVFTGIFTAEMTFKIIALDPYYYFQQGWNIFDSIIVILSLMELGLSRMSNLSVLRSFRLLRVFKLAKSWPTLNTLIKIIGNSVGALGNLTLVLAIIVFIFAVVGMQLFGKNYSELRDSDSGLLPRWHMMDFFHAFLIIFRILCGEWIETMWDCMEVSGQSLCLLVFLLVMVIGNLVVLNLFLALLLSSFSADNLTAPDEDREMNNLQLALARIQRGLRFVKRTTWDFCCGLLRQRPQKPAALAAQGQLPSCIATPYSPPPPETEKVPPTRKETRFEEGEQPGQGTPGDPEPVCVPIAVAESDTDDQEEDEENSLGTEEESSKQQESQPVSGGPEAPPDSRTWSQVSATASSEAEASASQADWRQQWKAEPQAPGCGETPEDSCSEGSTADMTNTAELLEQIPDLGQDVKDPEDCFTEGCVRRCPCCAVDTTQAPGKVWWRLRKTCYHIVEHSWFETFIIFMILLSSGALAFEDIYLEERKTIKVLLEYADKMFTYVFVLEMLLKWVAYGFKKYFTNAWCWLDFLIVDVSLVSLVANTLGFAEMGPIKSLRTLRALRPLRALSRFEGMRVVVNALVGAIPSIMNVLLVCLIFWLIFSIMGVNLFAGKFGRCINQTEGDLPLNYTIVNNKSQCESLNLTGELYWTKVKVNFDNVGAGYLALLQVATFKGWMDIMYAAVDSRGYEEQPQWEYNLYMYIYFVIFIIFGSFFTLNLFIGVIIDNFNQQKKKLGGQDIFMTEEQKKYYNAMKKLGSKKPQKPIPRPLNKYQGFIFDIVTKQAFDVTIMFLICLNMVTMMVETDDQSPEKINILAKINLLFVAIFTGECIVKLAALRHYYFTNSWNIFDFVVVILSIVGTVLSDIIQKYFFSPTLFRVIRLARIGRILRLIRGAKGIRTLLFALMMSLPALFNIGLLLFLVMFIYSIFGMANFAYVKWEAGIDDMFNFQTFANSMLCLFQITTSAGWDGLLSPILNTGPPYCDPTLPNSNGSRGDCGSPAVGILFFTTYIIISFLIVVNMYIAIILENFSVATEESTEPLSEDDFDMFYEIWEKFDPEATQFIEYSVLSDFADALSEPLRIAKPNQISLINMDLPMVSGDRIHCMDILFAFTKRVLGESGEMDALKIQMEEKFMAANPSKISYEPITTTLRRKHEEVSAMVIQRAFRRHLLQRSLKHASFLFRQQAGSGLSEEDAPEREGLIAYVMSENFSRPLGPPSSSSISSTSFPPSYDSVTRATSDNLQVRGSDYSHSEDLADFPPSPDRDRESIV

| SMILES | inhibition at 3 µM [1, 3] [%] | inhibition at 3 µM [1, 4] [%] | inhibition at 10 µM [2] [%] |
| --- | --- | --- | --- |
| CCN(CC)C(=O)COc1noc2ccc(-c3ccc(OC(F)(F)F)cc3)cc12 [Example 150, N,N-diethyl-2-((5-(4-(trifluoromethoxy)phenyl)benzo[d]isoxazol-3-yl)oxy)acetamide] | 58.5 | 9.3 | 62.8 |
| FC(F)(F)Oc1ccc(-c2ccc3onc(OCc4cnccn4)c3c2)cc1 [Example 151, 3-(pyrazin-2-ylmethoxy)-5-(4-(trifluoromethoxy)phenyl)benzo[d]isoxazole] | 43.3 | < 5 | 20 |
| Cc1nccnc1COc1noc2ccc(-c3ccc(OC(F)(F)F)cc3)cc12 [Example 152, 3-((3-methylpyrazin-2-yl)methoxy)-5-(4-(trifluoromethoxy)phenyl)benzo[d]isoxazole] | 30.6 | < 5 | 11.4 |
| Cc1nnc(C(C)Oc2noc3ccc(-c4ccc(OC(F)(F)F)cc4)cc23)o1 (centres unmarked) [Example 153, 3-(1-(5-methyl-1,3,4-oxadiazol-2-yl)ethoxy)-5-(4-(trifluoromethoxy)phenyl)benzo[d]isoxazole] | 57.6 |  | 73.1 |
| FC(F)(F)Oc1ccc(-c2ccc3onc(OCc4nnc(C5CC5)s4)c3c2)cc1 [Example 154, 3-((5-cyclopropyl-1,3,4-thiadiazol-2-yl)methoxy)-5-(4-(trifluoromethoxy)phenyl)benzo[d]isoxazole] | 7.68 | < 5 | 19.8 |
| Cc1nnc(COc2noc3c(F)cc(-c4ccc(OC(F)(F)F)cc4)cc23)o1 [Example 155, 7-fluoro-3-((5-methyl-1,3,4-oxadiazol-2-yl)methoxy)-5-(4-(trifluoromethoxy)phenyl)benzo[d]isoxazole] | 24.8 | 8.4 | 63.5 |
| FC(F)(F)Oc1ccc(-c2ccc3onc(NCc4ncco4)c3c2)cc1 [Example 156, N-(oxazol-2-ylmethyl)-5-(4-(trifluoromethoxy)phenyl)benzo[d]isoxazol-3-amine] | 10.4 | < 5 | 26.5 |
| CC(C)(C)OC(=O)COc1noc2ccc(-c3ccc(OC(F)(F)F)cc3)cc12 [Example 157, tert-butyl 2-((5-(4-(trifluoromethoxy)phenyl)benzo[d]isoxazol-3-yl)oxy)acetate] | 15.6 | < 5 | < 5 |
